Results as given in PMC4628094, “In Vitro Assessment of Uptake and Lysosomal Sequestration of Respiratory Drugs in Alveolar Macrophage Cell Line NR8383” (Pharmaceutical Research, 2015).
Read-outs that look alike come from different tables or passages of the source.

How the values were obtained:
[1] = system: NR8383 cell line and granule fraction (containing lysosomes); conditions: ref ([12]), cited from earlier work
NR8383 cells [2] = assay: Lysosomal sequestration studies in NR8383 with NH4Cl, monensin and nigericin; conditions: for Reduction in uptake clearance (%): preliminary optimisation; for % Reduction in Kp by NH4Cl: NH4Cl 20 mM; for % Reduction in Kp by Monensin: monensin 5 μM; for % Reduction in Kp by Monensin / % Reduction in Kp by Nigericin: 5 min; for % Reduction in Kp by Nigericin: nigericin 10 μM; for reduction in Kp in the presence of chemical agents (summary in Discussion): NR8383, NH4Cl, monensin, nigericin
[3] = Physicochemical properties, experimental literature values (Table I); conditions: classification in Table I
NR8383 cells [4] = system: NR8383 cells
NR8383 cells [5] = assay: Drug uptake in NR8383 at 37 and 4°C (CLuptake, CLdiff, Kp); conditions: for Contribution of passive (%): NR8383, 5 μM, CLdiff relative to CLuptake
NR8383 cells [6] = assay: Accumulation (Kp) in NR8383 over a concentration range, two-site binding model; conditions: apparent saturable uptake equilibrium constant, two-site binding model, control
NR8383 cells [7] = assay: Uptake kinetics of clarithromycin in NR8383, two-step method; type: in vitro ADME, rat; conditions: in the presence of NH4Cl
[8] = as above; type: in vitro ADME, rat; conditions: rat, incubation media of NR8383 cells; NR8383 incubation media; read-out: fraction unbound in the media (fumed)
[9] = experimental value; ref ([21])-([30]) per drug, Table I; cited from earlier work
NR8383 cells [10] = assay: LysoTracker Red (LTR) confocal assessment of lysosomal sequestration in NR8383; type: cell-based, rat; conditions: drug 5 μM co-incubated with 200 nM LTR, 1 h
NR8383 cells [11] = conditions: NR8383, 5 μM drug, 5 min
[12] = Lysosomal sequestration studies in NR8383 with NH4Cl, monensin and nigericin; conditions: rat; for Kp at 10 min, 5 μM: NR8383, 5 μM drug; for Kp at 10 min, 20 µM: NR8383, 20 µM drug
[13] = Drug uptake in NR8383 at 37 and 4°C (CLuptake, CLdiff, Kp); conditions: rat
[14] = Accumulation (Kp) in NR8383 over a concentration range, two-site binding model; conditions: rat, control
[15] = system: Lung tissue slices from male Sprague-Dawley rats; conditions: desipramine, diazepam 5 µM, chloroquine, thiopental 10 µM, 60 min, ref (3), cited from earlier work
[16] = system: Liver tissue slices from male Sprague-Dawley rats; set-up: method as in ref (3) (a number printed in a supplementary file, which may have a reference list of its own: not looked up in the article's list); conditions: desipramine 5 µM, chloroquine 10 µM, 60 min, ref (3), cited from earlier work
[17] = system: Lung granule fraction containing lysosomes from male Wistar rats; set-up: method as in ref (6) (a number printed in a supplementary file, which may have a reference list of its own: not looked up in the article's list); conditions: NH4Cl 10 mM, drug 1 µM, 10 min; ref (6); cited from earlier work
[18] = system: Hepatocytes isolated from male Wistar rats; conditions: NH4Cl 10 mM, 15 min, ref (2), cited from earlier work

Which Kp ([1]; NR8383, 10 min, 37°C, initial concentration 50 μM) does the source give for `CC[C@H]1OC(=O)[C@H](C)[C@@H](O[C@H]2C[C@@](C)(OC)[C@@H](O)[C@H](C)O2)[C@H](C)[C@@H](O[C@@H]2O[C@H](C)C[C@H](N(C)C)[C@H]2O)[C@](C)(OC)C[C@@H](C)C(=O)[C@H](C)[C@@H](O)[C@]1(C)O` [Clarithromycin] here?
Its Kp is ~ 16.

What about the “reduction in Kp at 4°C compared to 37°C” value ([1]; NR8383) of the same compound?
The value was 90%.

What about the “reduction of amount of drug in the cells by NH4Cl” value ([1]; NR8383) of the same compound?
Its value is “approximately half”.

What about the “reduction of fraction of drug in the granules compartment (containing the lysosomes) by NH4Cl” value ([1]; NR8383) of the same compound?
Its value is 75%.

And the “Reduction in uptake clearance (%)” value (NR8383 cells [2]; 5 µM drug, + 10 mM NH4Cl)?
The value was 85%.

What about the “Reduction in uptake clearance (%)” value (NR8383 cells [2]; 5 µM drug, + 20 mM NH4Cl) of the same compound?
Its value is 93%.

And the “Reduction in uptake clearance (%)” value (NR8383 cells [2]; 5 µM drug, + 50 mM NH4Cl)?
The value was 94%.

And the “Reduction in uptake clearance (%)” value (NR8383 cells [2]; 20 µM drug, + 10 mM NH4Cl)?
Its value is 85%.

What about the “Reduction in uptake clearance (%)” value (NR8383 cells [2]; 20 µM drug, + 20 mM NH4Cl) of the same compound?
The value was 89%.

And the “Reduction in uptake clearance (%)” value (NR8383 cells [2]; 20 µM drug, + 50 mM NH4Cl)?
Its value is 93%.

What about the “% Reduction in Kp by NH4Cl” value (NR8383 cells [2]; NR8383, 5 μM drug) of the same compound?
Its value is 84 ± 6.6 %.

And the “% Reduction in Kp by Monensin” value (NR8383 cells [2]; NR8383, 5 μM drug)?
The value was 77 ± 8.5 %.

What about the “% Reduction in Kp by Nigericin” value (NR8383 cells [2]; NR8383, 5 μM drug) of the same compound?
Its value is 82 ± 9.6 %.

What about the “% Reduction in Kp by NH4Cl” value (NR8383 cells [2]; NR8383, 20 µM drug) of the same compound?
The value was 75 ± 8.3 %.

What about the “% Reduction in CLuptake by Monensin (5 µM)” value (NR8383 cells [2]; NR8383, at 5 µM drug) of the same compound?
The value was 78 ± 8.0 %.

What about the “% Reduction in CLuptake by NH4Cl (20 mM)” value (NR8383 cells [2]; NR8383, at 5 µM drug) of the same compound?
Its value is 85 ± 7.5 %.

And the “% Reduction in CLuptake by Nigericin (10 µM)” value (NR8383 cells [2]; NR8383, at 5 µM drug)?
Its value is 84 ± 9.2 %.

What about the “% Reduction in CLuptake by NH4Cl (20 mM)” value (NR8383 cells [2]; NR8383, at 20 µM drug) of the same compound?
The value was 78 ± 9.0 %.

And the “reduction of Kp and CLuptake in the presence of NH4Cl and monensin/nigericin” value (NR8383 cells [2]; NR8383, summary in Abstract)?
Its value is 59–85%.

What about the “reduction in Kp in the presence of chemical agents (summary in Discussion)” value (NR8383 cells [2]) of the same compound?
Its value is no less than 65%.

And the “Acid–base Property” value [3]?
Its value is “Base”.

What about the “cytotoxicity (LDH) compared to positive control” value (NR8383 cells [4]; drug 50 μM) of the same compound?
The value was less than 3%.

And the “cytotoxicity (LDH) compared to positive control” value (NR8383 cells [4]; drug 100 μM)?
Its value is 10%.

And the “Contribution of passive (%)” value (NR8383 cells [5])?
The value was 0.53%.

What about the “mean uptake of 5 μM clarithromycin across experiments” value (NR8383 cells [5]; control of individual experiments, n = 59) of the same compound?
The value was 5.50 ± 2.96 μl/min/10^6 cells.

And the KU1 (NR8383 cells [6])?
Its KU1 is 1.18 ± 1.45 µM.

And the Km (NR8383 cells [7]; active uptake)?
The Km was 28.5 µM.

What about the Vmax (NR8383 cells [7]; active uptake) of the same compound?
Its Vmax is 12.4 pmol/min/10^6 cells.

What about the “total CLuptake from kinetic parameters” value (NR8383 cells [7]) of the same compound?
The value was 0.46 μL/min/10^6 cells.

What about the fraction unbound [8] of the same compound?
Its fraction unbound is 0.93 ± 0.03.

And the LogD7.4 [9]?
Its LogD7.4 is 1.57.

What about the “reduction in LTR accumulation” value (NR8383 cells [10]) of the same compound?
The value was 86%.

And the “% Reduction in Kp by Monensin” value (NR8383 cells [11]; monensin 5 μM)?
Its value is 77%.

And the “% Reduction in Kp by Nigericin” value (NR8383 cells [11]; nigericin 10 μM)?
The value was 82%.

For `COc1ccc(CC(C)NCC(O)c2ccc(O)c(NC=O)c2)cc1` (centres unmarked) [Formoterol], which “% Reduction in Kp by NH4Cl” value (NR8383 cells [2]; NR8383, 5 μM drug) is on record?
Its value is 24 ± 9.0%.

What about the “% Reduction in Kp by Monensin” value (NR8383 cells [2]; NR8383, 5 μM drug) of the same compound?
Its value is 40 ± 7.5%.

What about the “% Reduction in Kp by Nigericin” value (NR8383 cells [2]; NR8383, 5 μM drug) of the same compound?
Its value is 27 ± 5.1 %.

What about the “% Reduction in Kp by NH4Cl” value (NR8383 cells [2]; NR8383, 20 µM drug) of the same compound?
Its value is 27 ± 8.1 %.

What about the “% Reduction in CLuptake by Monensin (5 µM)” value (NR8383 cells [2]; NR8383, at 5 µM drug) of the same compound?
The value was 41 ± 5.6%.

What about the “% Reduction in CLuptake by NH4Cl (20 mM)” value (NR8383 cells [2]; NR8383, at 5 µM drug) of the same compound?
Its value is 25 ± 14%.

What about the “% Reduction in CLuptake by Nigericin (10 µM)” value (NR8383 cells [2]; NR8383, at 5 µM drug) of the same compound?
The value was 19 ± 12%.

And the “% Reduction in CLuptake by NH4Cl (20 mM)” value (NR8383 cells [2]; NR8383, at 20 µM drug)?
The value was 27 ± 13%.

What about the “reduction in Kp in the presence of chemical agents (summary in Discussion)” value (NR8383 cells [2]) of the same compound?
The value was 20–40%.

And the Kp at 10 min, 5 μM ([12]; Kp + NH4Cl, 20 mM NH4Cl co-incubated, 10 min)?
The Kp at 10 min, 5 μM was 15.5 ± 1.16.

What about the Kp at 10 min, 20 µM ([12]; Kp + NH4Cl, 20 mM NH4Cl) of the same compound?
The Kp at 10 min, 20 µM was 19.2 ± 4.13.

And the Kp at 10 min, 5 μM ([12]; Kp Control, control)?
The Kp at 10 min, 5 μM was 20.8 ± 3.6.

What about the Kp at 10 min, 20 µM ([12]; Kp Control, control) of the same compound?
The Kp at 10 min, 20 µM was 26.5 ± 6.54.

And the “Acid–base Property” value [3]?
The value was “Base”.

What about the “cytotoxicity (LDH) compared to positive control” value (NR8383 cells [4]; high drug concentrations (50 and 100 μM per method), not stated at the place) of the same compound?
Its value is “less than 5%”.

And the “Contribution of passive (%)” value (NR8383 cells [5])?
The value was 3.71%.

And the Kp at 10 min, 5 μM [13]?
The Kp at 10 min, 5 μM was 24.5 ± 8.71.

What about the KU1 (NR8383 cells [6]) of the same compound?
Its KU1 is 1.54 ± 0.49 µM.

And the Kp at 10 min ([14]; Kp,max, sum of Kp,U1,max and Kp,min)?
Its Kp at 10 min is 69.

And the Kp at 10 min ([14]; Kp,min, NR8383, 37°C, concentration range, two-site binding model)?
The Kp at 10 min was 10 ± 0.92.

What about the LogD7.4 [9] of the same compound?
Its LogD7.4 is 2.60.

For `CCN(CC)CCCC(C)Nc1ccnc2cc(Cl)ccc12` (centres unmarked) [Chloroquine], which “Reduction in total uptake (%)” value ([15]; NH4Cl 20 mM) is on record?
The value was 66%.

And the “Reduction of total uptake (%)” value ([15]; monensin 10 µM)?
The value was 73%.

What about the “Reduction in total uptake (%)” value ([16]; NH4Cl 20 mM) of the same compound?
Its value is 53%.

And the “Reduction of total uptake (%)” value ([16]; monensin 10 µM)?
Its value is 44%.

And the “Reduction in total uptake (%)” value [17]?
The value was 87%.

And the “Reduction in total uptake (%)” value ([18]; drug 10 µM)?
The value was 93%.

What about the “Reduction in total uptake (%)” value ([18]; drug 100 µM) of the same compound?
Its value is 77%.
